From patent publication US11891365B2, “3-alkyl-4-amido-bicyclic [4,5,0] hydroxamic acids as HDAC inhibitors” (Valo Health, Inc., priority 2015, dated 2024) come the findings set out here.

This assay concerns the target T1, Full length human recombinant HDAC6 protein (Homo sapiens, UniProt Q9UBN7).
T1 sequence (Q9UBN7 1-1215): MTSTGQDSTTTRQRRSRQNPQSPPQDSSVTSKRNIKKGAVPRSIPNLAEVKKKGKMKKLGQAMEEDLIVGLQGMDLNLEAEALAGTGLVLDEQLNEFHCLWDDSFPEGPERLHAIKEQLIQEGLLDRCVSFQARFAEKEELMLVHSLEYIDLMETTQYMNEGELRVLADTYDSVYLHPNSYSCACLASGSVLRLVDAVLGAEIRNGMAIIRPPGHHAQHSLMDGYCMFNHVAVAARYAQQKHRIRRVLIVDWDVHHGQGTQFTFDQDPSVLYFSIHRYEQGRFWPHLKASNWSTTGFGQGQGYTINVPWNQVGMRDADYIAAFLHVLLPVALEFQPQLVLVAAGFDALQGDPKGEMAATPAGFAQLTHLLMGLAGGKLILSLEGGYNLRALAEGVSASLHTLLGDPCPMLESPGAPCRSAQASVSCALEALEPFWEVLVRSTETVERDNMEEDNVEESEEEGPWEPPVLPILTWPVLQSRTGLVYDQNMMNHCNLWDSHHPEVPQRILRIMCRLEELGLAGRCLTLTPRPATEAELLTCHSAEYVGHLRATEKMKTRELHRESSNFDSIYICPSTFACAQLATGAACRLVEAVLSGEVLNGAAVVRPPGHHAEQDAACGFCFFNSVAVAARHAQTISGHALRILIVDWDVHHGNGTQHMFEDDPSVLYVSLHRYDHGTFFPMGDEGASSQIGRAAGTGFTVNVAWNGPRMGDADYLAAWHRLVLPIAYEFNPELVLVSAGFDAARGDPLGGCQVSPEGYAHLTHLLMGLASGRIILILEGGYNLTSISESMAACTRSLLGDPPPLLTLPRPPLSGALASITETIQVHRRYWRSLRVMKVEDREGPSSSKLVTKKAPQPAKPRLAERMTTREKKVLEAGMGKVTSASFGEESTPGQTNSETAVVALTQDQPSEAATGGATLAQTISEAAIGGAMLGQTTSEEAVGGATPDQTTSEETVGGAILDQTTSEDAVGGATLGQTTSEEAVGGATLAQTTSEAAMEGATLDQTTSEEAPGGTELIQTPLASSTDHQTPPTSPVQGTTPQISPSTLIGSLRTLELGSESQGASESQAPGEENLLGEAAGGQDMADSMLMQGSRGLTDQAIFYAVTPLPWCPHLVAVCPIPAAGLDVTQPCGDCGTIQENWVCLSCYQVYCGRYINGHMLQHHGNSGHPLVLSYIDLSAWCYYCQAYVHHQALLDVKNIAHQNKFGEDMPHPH
As to the kind of experiment: In vitro histone deacetylase assay: enzymatic HDAC6 electrophoretic mobility shift assay. In kind it is biochemical. To be noted: 1 nM enzyme, 2 μM peptide substrate RHKK(Ac)-NH2, 25° C., 12 concentrations; read-out: Inhibitory Concentration (IC50) Values against HDAC6, Activity Range. How it is done:
The enzymatic HDAC6 assay was performed using electrophoretic mobility shift assay. […] The enzymatic reactions were assembled in 384 well plates in a total volume of 25 μL in a reaction buffer composing: 100 mM HEPES, pH7.5, 25 mM KCl, 0.1% bovine serum albumin, 0.01% Triton X-100, 1% DMSO (from compounds) 2 μM of the fluorescently labeled peptide substrate and enzyme. The enzyme was added at a final concentration of 1 nM. The peptide substrate RHKK(Ac)—NH2 was used. The compounds were tested at 12 concentrations spaced by 3× dilution intervals. Negative control samples ([…] in the absence of inhibitor) and positive control samples (100%-inhibition) were assembled in replicates of four in each assay plate. The reactions were incubated at 25° C. and quenched by the addition of 45 μL of termination buffer (100 mM HEPES, pH 7.5, 0.01% Triton X-100, 0.05% SDS).
The terminated assay plates were analyzed on LabChip® 3000 microfluidic electrophoresis instrument (Perkin Elmer/Caliper Life Sciences). The fluorescence intensity of the electrophoretically separated de-acetylated product and substrate peptide was measured. Activity in each sample was determined as the product to sum ratio (PSR): P/(S+P), where P is the peak height of the product peptide and S is the peak height of the substrate peptide. Percent inhibition (Pinh) is determined using the following equation:
Pinh=(PSR0%−PSRinh)/(PSR0%−PSR100%)*100, where PSRinh is the product sum ratio in the presence of inhibitor, PSR0% is the average product sum ration in the absence of inhibitor and PSR100% is the average product sum ratio in 100%-inhibition control samples. The IC50 values of inhibitors were determined by fitting the %-inhibition curves with 4 parameter dose-response model using XLfit 4 software.

Some results are limits rather than exact numbers.

Take `COC[C@H]1CN(C(=O)C2CCOCC2)Cc2ccc(C(=O)NO)cc2O1` [(R)-N-hydroxy-2-(methoxymethyl)-4-(tetrahydro-2H-pyran-4-carbonyl)-2,3,4,5-tetrahydrobenzo[f][1,4]oxazepine-8-carboxamide]: the IC50 was in the range of 100 to 500 nM.

On to `CC(C)(C)OC(=O)N1CC2(CC(C(=O)N3CCOc4cc(C(=O)NO)ccc4C3)CO2)C1` (centres unmarked) [tert-butyl 7-(8-(hydroxycarbamoyl)-2,3,4,5-tetrahydrobenzo[f][1,4]oxazepine-4-carbonyl)-5-oxa-2-azaspiro[3.4]octane-2-carboxylate], for which the IC50 was 100 to 500 nM.

As to `O=C(NO)c1ccc2c(c1)OCCN(C(=O)C(c1ccccc1)n1cccn1)C2` (centres unmarked) [N-hydroxy-4-(2-phenyl-2-(1H-pyrazol-1-yl)acetyl)-2,3,4,5-tetrahydrobenzo[f][1,4]oxazepine-8-carboxamide], the IC50 lay in the range of 100 to 500 nM.

Consider `O=C(NO)c1ccc2c(c1)OCCN(C(=O)C1(c3ccc(C(F)(F)F)cc3)CC1)C2` [N-hydroxy-4-(1-(4-(trifluoromethyl)phenyl)cyclopropane-1-carbonyl)-2,3,4,5-tetrahydrobenzo[f][1,4]oxazepine-8-carboxamide], for which the IC50 is at most 100 nM.

Regarding `COC1(C(=O)N2Cc3ccc(C(=O)NO)cc3OC[C@@H]2C)CCC1` [(S)-N-hydroxy-4-(1-methoxycyclobutane-1-carbonyl)-3-methyl-2,3,4,5-tetrahydrobenzo[f][1,4]oxazepine-8-carboxamide], the IC50 was at most 100 nM.

As for `O=C(NO)c1ccc2c(c1)OC[C@H](C(F)(F)F)N(C(=O)C1COC1)C2` [(R)-N-hydroxy-4-(oxetane-3-carbonyl)-3-(trifluoromethyl)-2,3,4,5-tetrahydrobenzo[f][1,4]oxazepine-8-carboxamide], the IC50 was at most 100 nM.

In the case of `C[C@H]1CN(C=O)Cc2ccc(C(=O)NO)cc2O1` [(S)-4-formyl-N-hydroxy-2-methyl-2,3,4,5-tetrahydrobenzo[f][1,4]oxazepine-8-carboxamide], the IC50 is at most 100 nM.

As to `CC(C)COCC(=O)N1CCOc2cc(C(=O)NO)ccc2C1` [N-hydroxy-4-(2-isobutoxyacetyl)-2,3,4,5-tetrahydrobenzo[f][1,4]oxazepine-8-carboxamide], the IC50 was above 500 nM.

Regarding `O=C(NO)c1cnc2c(n1)OCCN(C(=O)C1CCCCC1)C2` [8-(cyclohexanecarbonyl)-N-hydroxy-6,7,8,9-tetrahydropyrazino[2,3-f][1,4]oxazepine-3-carboxamide], the IC50 was at most 100 nM.

As to `CCC1(C(=O)N2Cc3ccc(C(=O)NO)cc3OC[C@@H]2C)COC1` [(S)-4-(3-ethyloxetane-3-carbonyl)-N-hydroxy-3-methyl-2,3,4,5-tetrahydrobenzo[f][1,4]oxazepine-8-carboxamide], the IC50 is at most 100 nM.

Consider `C[C@H]1COc2cc(C(=O)NO)ccc2CN1C(=O)C1CCC1` [(S)-4-(cyclobutanecarbonyl)-N-hydroxy-3-methyl-2,3,4,5-tetrahydrobenzo[f][1,4]oxazepine-8-carboxamide], for which the IC50 is at most 100 nM.

Regarding `O=C(NO)c1ccc2c(c1)OCCN(C(=O)C1(c3ccccc3)CC1)C2` [N-hydroxy-4-(1-phenylcyclopropane-1-carbonyl)-2,3,4,5-tetrahydrobenzo[f][1,4]oxazepine-8-carboxamide], the IC50 is at most 100 nM.

For `CC(C)(C(=O)N1CCOc2cc(C(=O)NO)ccc2C1)n1cc(Cl)cn1` [4-(2-(4-chloro-1H-pyrazol-1-yl)-2-methylpropanoyl)-N-hydroxy-2,3,4,5-tetrahydrobenzo[f][1,4]oxazepine-8-carboxamide], the IC50 was at most 100 nM.

Turning to `O=C(NO)c1ccc2c(c1)OCCN(C(=O)C1CCC3(CCNCC3)C1)C2` (centres unmarked) [N-hydroxy-4-(8-azaspiro[4.5]decane-2-carbonyl)-2,3,4,5-tetrahydrobenzo[f][1,4]oxazepine-8-carboxamide], the IC50 was at most 100 nM.

Turning to `C[C@H]1COc2cc(C(=O)NO)ccc2CN1C(=O)C1CCCC1` [(S)-4-(cyclopentanecarbonyl)-N-hydroxy-3-methyl-2,3,4,5-tetrahydrobenzo[f][1,4]oxazepine-8-carboxamide], the IC50 is at most 100 nM.

For the molecule `CCC1(C(=O)N2CCOc3cc(C(=O)NO)ccc3C2)COC1` [4-(3-ethyloxetane-3-carbonyl)-N-hydroxy-2,3,4,5-tetrahydrobenzo[f][1,4]oxazepine-8-carboxamide], the IC50 was at most 100 nM.

`CC[C@H]1COc2cc(C(=O)NO)ccc2CN1C(=O)C1CCOCC1` [(S)-3-ethyl-N-hydroxy-4-(tetrahydro-2H-pyran-4-carbonyl)-2,3,4,5-tetrahydrobenzo[f][1,4]oxazepine-8-carboxamide]: the IC50 was at most 100 nM.

As to `CC(=O)N1Cc2ccc(C(=O)NO)cc2OC[C@H]1C` [(R)-4-acetyl-N-hydroxy-3-methyl-2,3,4,5-tetrahydrobenzo[f][1,4]oxazepine-8-carboxamide], the IC50 is above 500 nM.

Consider `C[C@H]1COc2cc(C(=O)NO)ccc2CN1C(=O)C(C)(C)C1CCOCC1` [(S)-N-hydroxy-3-methyl-4-(2-methyl-2-(tetrahydro-2H-pyran-4-yl)propanoyl)-2,3,4,5-tetrahydrobenzo[f][1,4]oxazepine-8-carboxamide], for which the IC50 is at most 100 nM.

Take `C[C@H]1COc2cc(C(=O)NO)ccc2CN1C(=O)[C@@]1(C)CCOC1` [(S)-N-hydroxy-3-methyl-4-((S)-3-methyltetrahydrofuran-3-carbonyl)-2,3,4,5-tetrahydrobenzo[f][1,4]oxazepine-8-carboxamide]: the IC50 is at most 100 nM.

Consider `C[C@H]1COc2cc(C(=O)NO)ccc2CN1C(=O)[C@H]1CC2CCC1O2` (stereo partly drawn) [(3S)-4-((2S)-7-oxabicyclo[2.2.1]heptane-2-carbonyl)-N-hydroxy-3-methyl-2,3,4,5-tetrahydrobenzo[f][1,4]oxazepine-8-carboxamide], for which the IC50 is at most 100 nM.

Regarding `O=C(NO)c1ccc2c(c1)OCCN(C(=O)C1CCC3(CCNCC3)CC1)C2` [N-hydroxy-4-(3-azaspiro[5.5]undecane-9-carbonyl)-2,3,4,5-tetrahydrobenzo[f][1,4]oxazepine-8-carboxamide], the IC50 was at most 100 nM.

With `COC[C@H]1CN(C=O)Cc2ccc(C(=O)NO)cc2O1` [(R)-4-formyl-N-hydroxy-2-(methoxymethyl)-2,3,4,5-tetrahydrobenzo[f][1,4]oxazepine-8-carboxamide], the IC50 is at most 100 nM.

On to `Cn1cc(C(=O)N2CCOc3cc(C(=O)NO)ccc3C2)ccc1=O` [N-hydroxy-4-(1-methyl-6-oxo-1,6-dihydropyridine-3-carbonyl)-2,3,4,5-tetrahydrobenzo[f][1,4]oxazepine-8-carboxamide], for which the IC50 is above 500 nM.

On to `O=C(NO)c1ccc2c(c1)OCCN(C(=O)c1ccc(N3CCOCC3)cc1)C2` [N-hydroxy-4-(4-morpholinobenzoyl)-2,3,4,5-tetrahydrobenzo[f][1,4]oxazepine-8-carboxamide], for which the IC50 fell in the range of 100 to 500 nM.

Regarding `CC(=O)N1CCCC(C(=O)N2CCOc3cc(C(=O)NO)ccc3C2)C1` (centres unmarked) [4-(1-acetylpiperidine-3-carbonyl)-N-hydroxy-2,3,4,5-tetrahydrobenzo[f][1,4]oxazepine-8-carboxamide], the IC50 was at most 100 nM.
